Test results as given in the NIST ThermoML archive (doi:10.1016/j.fluid.2014.05.031).
Values joined by “and” are separate entries in the source; they are usually repeats but may differ in a detail not shown here. Identical values can stand only once.

Test: excess molar enthalpy (molar enthalpy of mixing); xn = mol fraction of the nth substance listed
Conditions: Liquid, Flow calorimetry

CC(=O)O [acetic acid] + CCO
323.15 K, 1548 kPa
Conditions | excess molar enthalpy [kcal/mol]
x1 = 0.0247 | 0.0108
x1 = 0.0493 | 0.0202
x1 = 0.0987 | 0.0347
x1 = 0.1729 | 0.0468
x1 = 0.2473 | 0.0514
x1 = 0.3467 | 0.0507
x1 = 0.4464 | 0.0435
x1 = 0.5464 | 0.0354
x1 = 0.6467 | 0.0265
x1 = 0.7473 | 0.0192
x1 = 0.8229 | 0.0145
x1 = 0.8987 | 0.0093
x1 = 0.9493 | 0.00504
x1 = 0.9746 | 0.0028

CC(=O)O [acetic acid] + CCOC(C)=O
323.15 K, 1548 kPa
Conditions | excess molar enthalpy [kcal/mol]
x2 = 0.0148 | -0.00177
x2 = 0.03 | -0.00354
x2 = 0.0613 | -0.00636
x2 = 0.1108 | -0.00925
x2 = 0.1637 | -0.0104
x2 = 0.2403 | -0.00942
x2 = 0.3246 | -0.00631
x2 = 0.4179 | -0.00131
x2 = 0.5217 | 0.00523
x2 = 0.6379 | 0.0129
x2 = 0.7347 | 0.0174
x2 = 0.8409 | 0.0188
x2 = 0.9178 | 0.0152
x2 = 0.9582 | 0.0105

CCO [ethanol] + O
Conditions | excess molar enthalpy [kcal/mol]
333.15 K, 1824 kPa, x1 = 0.0079 | -0.00954
333.15 K, 1824 kPa, x1 = 0.016 | -0.019
333.15 K, 1824 kPa, x1 = 0.0333 | -0.037
333.15 K, 1824 kPa, x1 = 0.0519 | -0.0519
333.15 K, 1824 kPa, x1 = 0.0719 | -0.0636
333.15 K, 1824 kPa, x1 = 0.0936 | -0.071
333.15 K, 1824 kPa, x1 = 0.1172 | -0.0736
333.15 K, 1824 kPa, x1 = 0.143 | -0.0731
333.15 K, 1824 kPa, x1 = 0.1712 | -0.0688
333.15 K, 1824 kPa, x1 = 0.2023 | -0.0619
333.15 K, 1824 kPa, x1 = 0.2366 | -0.0552
333.15 K, 1824 kPa, x1 = 0.2747 | -0.0454
333.15 K, 1824 kPa, x1 = 0.3173 | -0.0351
333.15 K, 1824 kPa, x1 = 0.3653 | -0.0241
333.15 K, 1824 kPa, x1 = 0.4196 | -0.0125
333.15 K, 1824 kPa, x1 = 0.4818 | -0.00174
333.15 K, 1824 kPa, x1 = 0.5535 | 0.00655
333.15 K, 1824 kPa, x1 = 0.6372 | 0.00999
333.15 K, 1824 kPa, x1 = 0.7361 | 0.00746
333.15 K, 1824 kPa, x1 = 0.8548 | 0.000143
333.15 K, 1824 kPa, x1 = 0.9236 | -0.0037
333.15 K, 1824 kPa, x1 = 0.9608 | -0.00289
363.15 K, 1203 kPa, x1 = 0.0079 | -0.00268
363.15 K, 1203 kPa, x1 = 0.016 | -0.00562
363.15 K, 1203 kPa, x1 = 0.0333 | -0.0111
363.15 K, 1203 kPa, x1 = 0.0518 | -0.0141
363.15 K, 1203 kPa, x1 = 0.0719 | -0.014
363.15 K, 1203 kPa, x1 = 0.0936 | -0.0108
363.15 K, 1203 kPa, x1 = 0.1172 | -0.00483
363.15 K, 1203 kPa, x1 = 0.143 | 0.00375
363.15 K, 1203 kPa, x1 = 0.1712 | 0.0131
363.15 K, 1203 kPa, x1 = 0.2022 | 0.0237
363.15 K, 1203 kPa, x1 = 0.2365 | 0.0344
363.15 K, 1203 kPa, x1 = 0.2746 | 0.0457
363.15 K, 1203 kPa, x1 = 0.3173 | 0.0576
363.15 K, 1203 kPa, x1 = 0.3652 | 0.0688
363.15 K, 1203 kPa, x1 = 0.4196 | 0.0793
363.15 K, 1203 kPa, x1 = 0.4817 | 0.0858
363.15 K, 1203 kPa, x1 = 0.5534 | 0.0875
363.15 K, 1203 kPa, x1 = 0.6371 | 0.0813
363.15 K, 1203 kPa, x1 = 0.736 | 0.0641
363.15 K, 1203 kPa, x1 = 0.8548 | 0.0351
363.15 K, 1203 kPa, x1 = 0.9236 | 0.018
383.15 K, 1500 kPa, x1 = 0.0333 | 0.00287
383.15 K, 1500 kPa, x1 = 0.0719 | 0.0147
383.15 K, 1500 kPa, x1 = 0.1172 | 0.0339
383.15 K, 1500 kPa, x1 = 0.1712 | 0.0588
383.15 K, 1500 kPa, x1 = 0.2365 | 0.0858
383.15 K, 1500 kPa, x1 = 0.3173 | 0.112
383.15 K, 1500 kPa, x1 = 0.4196 | 0.132
383.15 K, 1500 kPa, x1 = 0.5534 | 0.138
383.15 K, 1500 kPa, x1 = 0.6371 | 0.13
383.15 K, 1500 kPa, x1 = 0.736 | 0.106
383.15 K, 1500 kPa, x1 = 0.7926 | 0.0887
383.15 K, 1500 kPa, x1 = 0.8548 | 0.0645
383.15 K, 1500 kPa, x1 = 0.9236 | 0.0349

CCOC(C)=O [ethyl acetate] + CCO
Conditions | excess molar enthalpy [kcal/mol]
363.15 K, 1548 kPa, x1 = 0.0151 | 0.0233
363.15 K, 1548 kPa, x1 = 0.0305 | 0.0473
363.15 K, 1548 kPa, x1 = 0.0624 | 0.0937
363.15 K, 1548 kPa, x1 = 0.0956 | 0.138
363.15 K, 1548 kPa, x1 = 0.1302 | 0.1809
363.15 K, 1548 kPa, x1 = 0.1664 | 0.2213
363.15 K, 1548 kPa, x1 = 0.2042 | 0.2588
363.15 K, 1548 kPa, x1 = 0.2438 | 0.2935
363.15 K, 1548 kPa, x1 = 0.2853 | 0.3284
363.15 K, 1548 kPa, x1 = 0.3288 | 0.3559
363.15 K, 1548 kPa, x1 = 0.3745 | 0.3781
363.15 K, 1548 kPa, x1 = 0.4226 | 0.3984
363.15 K, 1548 kPa, x1 = 0.4732 | 0.4104
363.15 K, 1548 kPa, x1 = 0.5265 | 0.4087
363.15 K, 1548 kPa, x1 = 0.5828 | 0.4039
363.15 K, 1548 kPa, x1 = 0.6424 | 0.3867
363.15 K, 1548 kPa, x1 = 0.7054 | 0.3552
363.15 K, 1548 kPa, x1 = 0.7724 | 0.305
363.15 K, 1548 kPa, x1 = 0.8435 | 0.2323
363.15 K, 1548 kPa, x1 = 0.9192 | 0.133
363.15 K, 1548 kPa, x1 = 0.9589 | 0.0698
413.15 K, 1307 kPa, x1 = 0.0151 | 0.0258
413.15 K, 1307 kPa, x1 = 0.0306 | 0.0531
413.15 K, 1307 kPa, x1 = 0.0624 | 0.105
413.15 K, 1307 kPa, x1 = 0.0956 | 0.154
413.15 K, 1307 kPa, x1 = 0.1302 | 0.201
413.15 K, 1307 kPa, x1 = 0.1664 | 0.2457
413.15 K, 1307 kPa, x1 = 0.2042 | 0.2863
413.15 K, 1307 kPa, x1 = 0.2438 | 0.325
413.15 K, 1307 kPa, x1 = 0.2853 | 0.359
413.15 K, 1307 kPa, x1 = 0.3288 | 0.3879
413.15 K, 1307 kPa, x1 = 0.3745 | 0.4123
413.15 K, 1307 kPa, x1 = 0.4226 | 0.4238
413.15 K, 1307 kPa, x1 = 0.4732 | 0.4338
413.15 K, 1307 kPa, x1 = 0.5265 | 0.4331
413.15 K, 1307 kPa, x1 = 0.5829 | 0.4218
413.15 K, 1307 kPa, x1 = 0.6424 | 0.3975
413.15 K, 1307 kPa, x1 = 0.7055 | 0.359
413.15 K, 1307 kPa, x1 = 0.7724 | 0.3014
413.15 K, 1307 kPa, x1 = 0.8435 | 0.2244
413.15 K, 1307 kPa, x1 = 0.9192 | 0.125
413.15 K, 1307 kPa, x1 = 0.9589 | 0.066

CCOC(C)=O [ethyl acetate] + O
353.15 K, 1272 kPa
Conditions | excess molar enthalpy
x1 = 0.0096 | 0.005 kcal/mol
x1 = 0.0201 | 0.0107 kcal/mol
x1 = 0.0441 | 0.0219 kcal/mol
x1 = 0.058 | 0.0284 kcal/mol
x1 = 0.0733 | 0.0356 kcal/mol
x1 = 0.0905 | 0.0435 kcal/mol and 0.0437 kcal/mol
x1 = 0.1096 | 0.0526 kcal/mol
x1 = 0.1313 | 0.0631 kcal/mol
x1 = 0.1559 | 0.0743 kcal/mol
x1 = 0.1842 | 0.087 kcal/mol
x1 = 0.2169 | 0.103 kcal/mol
x1 = 0.2554 | 0.121 kcal/mol
x1 = 0.3012 | 0.142 kcal/mol
x1 = 0.3565 | 0.168 kcal/mol
x1 = 0.4249 | 0.2 kcal/mol
x1 = 0.5114 | 0.24 kcal/mol
x1 = 0.5639 | 0.264 kcal/mol
x1 = 0.6244 | 0.293 kcal/mol
x1 = 0.6949 | 0.324 kcal/mol
x1 = 0.8258 | 0.287 kcal/mol
x1 = 0.8781 | 0.225 kcal/mol
x1 = 0.9359 | 0.141 kcal/mol
